{"source": "patent US11413278B2", "about": "“Compounds and methods for promoting stress resistance” (priority 2015, dated 2022)", "key": {"C. elegans": {"tested_on": "C. elegans", "assay": "C. elegans lifespan assays (liquid and plate)", "format": "in vivo, Caenorhabditis elegans", "conditions": "for ILS at 66 µM / ILS at 60 µM: Caenorhabditis elegans"}, "[1]": {"tested_on": "phosphorylated γH2A.X and TP53BP1", "assay": "DNA damage marker analysis (immuno-staining)", "conditions": "for activity at 10 µM: Homo sapiens, WI-38, 24 h", "method": "WI-38 cells were seeded on 96-well plates and cultured for 24 hrs and then incubated with small molecules for another 24 hrs. As the positive control to damage DNA, H2O2 was supplemented at 700 μM final concentration for the last 3 hrs. Cells were washed with phosphate-buffered saline (PBS), fixed with 4% paraformaldehyde and then blocked with 5% normal goat serum (Cell Signaling), plus 0.3% Triton X-100, for 1 hr. Primary antibody cocktail (rabbit anti-phospho-histone γH2A.X (Ser-139), 1:100; anti-phospho-TP53BP1 (Ser-1778), 1:100), prepared in 1% BSA and 0.3% Triton X-100/PBS, was then introduced and incubated overnight at 4 C. Next day, samples were washed with PBS and further incubated with fluorophore-conjugated secondary antibody (1:1,000) for 1 hr in the dark. Samples were then washed and incubated with DAPI dye (Life Technologies) (4 μg/ml final concentration) for the last 10 minutes. Images were collected on an INCell Analyzer 2000 (GE) and analyzed with the Developer software.\nWI-38 cells were seeded (˜8,000 cells per well) on 96-well plates and cultured for 24 hrs and then incubated with small molecules for another 24 hrs. Doxorubicin (300 nM, 24 hrs) and H2O2 (700 μM, 3 hrs) were also introduced as the positive controls to damage DNA. Cells were washed with phosphate-buffered saline (PBS), fixed with 4% paraformaldehyde for 30 min and then blocked with 5% normal goat serum (Cell Signaling) and 0.3% Triton X-100 for 1 hr. Primary antibody cocktail (Cell Signaling, rabbit anti-phospho-histone γH2A.X (Ser-139), 1:100; anti-phospho-TP53BP1 (Ser-1778), 1:100) was prepared in PBS with 1% BSA and 0.3% Triton X-100 and incubated overnight at 4° C. Next day, samples were washed with PBS and further incubated with fluorophore-conjugated secondary antibody (1:1,000) for 1 hr in dark. Samples were then washed and incubated with DAPI dye (Life Technologies) (4 μg/ml final concentration) for 30 minutes. Images were collected on the INCell Analyzer 2000 (10× objective) and analyzed with the Developer Toolbox."}, "human PARP1": {"molecular_target": "T1, human PARP1 (Homo sapiens, UniProt P09874)", "T1 construct": "purchased Trevigen", "T1 sequence (P09874 whole entry)": "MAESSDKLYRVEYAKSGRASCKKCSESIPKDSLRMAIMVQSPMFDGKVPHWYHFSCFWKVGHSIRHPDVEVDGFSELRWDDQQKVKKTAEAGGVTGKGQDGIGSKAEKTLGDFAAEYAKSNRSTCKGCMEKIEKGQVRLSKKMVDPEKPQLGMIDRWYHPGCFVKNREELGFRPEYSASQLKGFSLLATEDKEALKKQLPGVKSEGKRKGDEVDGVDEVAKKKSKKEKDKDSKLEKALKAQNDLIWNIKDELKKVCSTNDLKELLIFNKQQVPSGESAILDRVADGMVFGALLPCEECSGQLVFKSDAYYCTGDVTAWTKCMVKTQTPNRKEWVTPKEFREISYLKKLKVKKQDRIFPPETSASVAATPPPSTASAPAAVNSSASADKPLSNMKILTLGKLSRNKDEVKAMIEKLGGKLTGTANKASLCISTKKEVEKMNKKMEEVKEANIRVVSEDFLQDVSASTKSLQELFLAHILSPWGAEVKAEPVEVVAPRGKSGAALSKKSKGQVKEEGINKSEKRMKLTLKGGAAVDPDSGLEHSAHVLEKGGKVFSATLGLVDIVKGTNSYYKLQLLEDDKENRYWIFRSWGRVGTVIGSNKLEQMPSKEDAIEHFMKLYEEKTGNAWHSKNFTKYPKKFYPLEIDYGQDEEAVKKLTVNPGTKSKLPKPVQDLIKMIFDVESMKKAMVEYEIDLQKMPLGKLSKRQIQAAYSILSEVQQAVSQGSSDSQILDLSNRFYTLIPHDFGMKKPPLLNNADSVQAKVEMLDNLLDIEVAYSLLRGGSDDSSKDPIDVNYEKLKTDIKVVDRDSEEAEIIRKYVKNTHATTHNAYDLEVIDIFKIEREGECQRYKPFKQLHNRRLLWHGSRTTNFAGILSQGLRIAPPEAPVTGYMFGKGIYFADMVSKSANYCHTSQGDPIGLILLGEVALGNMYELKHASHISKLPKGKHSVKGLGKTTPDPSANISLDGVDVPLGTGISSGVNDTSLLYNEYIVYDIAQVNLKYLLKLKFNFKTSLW", "assay": "PARP inhibitor assay (HT Fluorescent Homogeneous PARP Inhibition Assay Kit)", "format": "biochemical", "conditions": "score", "method_in_brief": "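Compounds (10 μM final) incubated 30 min, room temperature, dark, with human PARP1, nicotinamide adenine dinucleotide and activated DNA. Fluorescent signal generated by 1 hr cycling with diaphorase and resazurin, then reaction stopped.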"}, "WI-38 cells [2]": {"tested_on": "WI-38 cells", "conditions": "for Assay 1: H2O2-resistant: YES/NO, if NO, possibly due to repeated freezing/thawing of stocks"}, "[3]": {"tested_on": "PC12 cells expressing poly(Q)103-Htt-EGFP", "assay": "Poly(Q) toxicity & viability analysis (cellular model of Huntington's disease)", "format": "cell-based, rat", "conditions": "for M = Huntington's poly-Q toxicity attenuation: score; for K = Huntington's poly-Q toxicity attenuation: summary score", "method": "Viability assays were performed as described before (Aiken et al., 2004). PC12 cells that stably express the inducible poly(Q)103-Htt-EGFP were grown in culture. […] Cell viability was analyzed 48 hrs later by measuring ATP content with CellTiter-Glo.\nToxic protein aggregation is a key feature of many age-related neurodegenerative diseases, including Alzheimer's and Huntington's disease (Caughey and Lansbury, 2003; Ross and Poirier, 2004). A number of animal models (Phillips et al., 2009) and cell models (Schlachetzki et al., 2013) have been established to study these diseases. For this purpose, PC12 rat pheochromocytoma cells display neuronal features and produce neurotransmitters and have been used extensively to study neuronal phenotypes, including synaptic transmission and neurological diseases. […] In this model, induced expression of poly(Q)103-Htt-EGFP could lead to the formation of aggregates and exert substantial toxicity in cells."}, "WI-38 cells [4]": {"tested_on": "WI-38 cells", "assay": "MMS resistance assay", "format": "cell-based, human", "conditions": "for fold induction at 10 µM: Homo sapiens, 12 h, normalized ATP measurement", "method_in_brief": "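Resistance to CdCl2 or MMS stress (12 h exposure) was scored in WI-38 fibroblasts pretreated with compound at 0.25–20 μM final, five doses, technical triplicates. MMS plates had compound added 24 h before MMS, after a shift to serum-free DMEM+2% BSA. Significance came from a global variance t-test over two independent runs.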"}, "[5]": {"conditions": "read-out: Experiment 1, H2A.X-P DNA damage foci staining (no H2O2 stress treatment), at 10 uM"}, "[6]": {"conditions": "read-out: Experiment 2, H2A.X-P DNA damage foci staining (no H2O2 stress treatment), at 10 uM"}, "[7]": {"conditions": "read-out: Experiment 2, H2A.X-P DNA damage foci staining (under H2O2 stress treatment), at 10 uM"}, "[8]": {"conditions": "read-out: Experiment 2, TP53BP1-P DNA damage foci staining (no H2O2 stress treatment), at 10 uM"}, "[9]": {"conditions": "WI-38 cells, 10 μM, (*) = compromised ability to protect cells from H2O2, could be due to stability issue"}, "[10]": {"conditions": "asterisks indicate the loss of the ability to protect cells from H2O2 over time"}, "[11]": {"conditions": "derived from dose response curves, 0.6-20 uM, H2O2-resistance of WI-38 cells"}, "[12]": {"conditions": "read-out: Est. ED50, dose response 0.6-20 μM, H2O2-resistance"}, "[13]": {"conditions": "score in summary of 38 core set hits"}}, "note": "Like-named read-outs stand apart in the source and are kept apart here."}
{"compound": "Oc1ccccc1-c1noc(-c2ccccc2O)n1", "note": "[O27]", "values": [{"measurement": "ILS at 66 µM", "setting": "C. elegans; read-out: Lifespan assay on plates", "result": -69.3, "unit": "%"}, {"measurement": "ILS at 60 µM", "setting": "C. elegans; read-out: relative change of mean lifespan vs control, Trial 1", "result": -35.1, "unit": "%"}, {"measurement": "ILS at 60 µM", "setting": "C. elegans; read-out: relative change of mean lifespan vs control, Trial 2", "result": -17.8, "unit": "%"}, {"measurement": "ILS at 60 µM", "setting": "C. elegans; read-out: relative change of mean lifespan vs control, Trial 3", "result": -69.3, "unit": "%"}, {"measurement": "M = Lifespan-extending scores in worms", "setting": "C. elegans; in vivo", "result": 0}, {"measurement": "O = Life span- extending scores in worms", "setting": "C. elegans; in vivo", "result": 0}, {"measurement": "activity at 10 µM", "setting": "[1]; [5]", "result": 122, "unit": "%"}, {"measurement": "activity at 10 µM", "setting": "[1]; [6]", "result": 338, "unit": "%"}, {"measurement": "activity at 10 µM", "setting": "[1]; [7]", "result": 26.1, "unit": "%"}, {"measurement": "activity at 10 µM", "setting": "[1]; [8]", "result": 241, "unit": "%"}, {"measurement": "activity at 10 µM", "setting": "[1]; read-out: Experiment 2, TP53BP1-P DNA damage foci staining (under H2O2 stress treatment), at 10 uM", "result": 379, "unit": "%"}, {"measurement": "R = Potential DNA damaging", "setting": "[1]; negative point, cultured human cells", "result": 1}, {"measurement": "P = Potential DNA-damaging", "setting": "[1]; summary score", "result": 1}, {"measurement": "L = PARP inhibition", "setting": "human PARP1", "result": 0}, {"measurement": "H2O2-resistant", "setting": "WI-38 cells [2]; [9]", "result": "YES"}, {"measurement": "Assay 1: H2O2-resistant", "setting": "WI-38 cells [2]", "result": "YES"}, {"measurement": "H2O2-resistant", "setting": "WI-38 cells [2]; [10]", "result": "YES"}, {"measurement": "EC50", "setting": "WI-38 cells [2]; [11]", "result": 12.7, "unit": "µM"}, {"measurement": "EC50", "setting": "WI-38 cells [2]; [12]", "result": 12.7, "unit": "µM"}, {"measurement": "M = Huntington's poly-Q toxicity attenuation", "setting": "[3]", "result": 0}, {"measurement": "K = Huntington's poly-Q toxicity attenuation", "setting": "[3]", "result": 0}, {"measurement": "Assay 5: Triple resistant", "setting": "WI-38 cells [4]; YES/NO, H2O2, cadmium and MMS", "result": "YES"}, {"measurement": "B = MMS resistant", "setting": "WI-38 cells [4]; [13]", "result": 0}, {"measurement": "B = MMS resistant", "setting": "WI-38 cells [4]; summary score", "result": 0}, {"measurement": "D = Triple resistant", "setting": "WI-38 cells [4]; summary score", "result": 0}]}
{"compound": "O=C(Nc1ccc(Cl)c(Cl)c1)c1ccc([N+](=O)[O-])o1", "note": "[Gr-1G]", "values": [{"measurement": "ILS at 60 µM", "setting": "C. elegans; 60 μM, in liquid, wild type, with FuDR, 1.0 × 10^9 bacteria/ml, read-out: relative change of mean lifespan vs control, Trial 1", "result": 1.3, "unit": "%"}, {"measurement": "ILS at 60 µM", "setting": "C. elegans; 60 μM, in liquid, wild type, with FuDR, 2.5 × 10^9 bacteria/ml, read-out: relative change of mean lifespan vs control, Trial 2", "result": 10.2, "unit": "%"}, {"measurement": "ILS at 60 µM", "setting": "C. elegans; 60 μM, on plate, CF512 temperature-sensitive sterile animals, without FuDR, 1.0 × 10^11 bacteria/ml, read-out: relative change of mean lifespan vs control, Trial 4", "result": 5.8, "unit": "%"}, {"measurement": "ILS at 60 µM", "setting": "C. elegans; 60 μM, on plate, CF512 temperature-sensitive sterile animals, without FuDR, 2.0 × 10^10 bacteria/ml, read-out: relative change of mean lifespan vs control, Trial 3", "result": 24.7, "unit": "%"}, {"measurement": "ILS at 66 µM", "setting": "C. elegans; Assay 2(z), at 66 uM, 1.0 × 10^9 bacteria/ml, wild type + FuDR (2012 July), read-out: Lifespan assay in liquid", "result": 1.3, "unit": "%"}, {"measurement": "ILS at 66 µM", "setting": "C. elegans; Assay 3(aa), at 66 uM, 2.5 × 10^9 bacteria/ml, wild type + FuDR, read-out: Lifespan assay in liquid", "result": 10.2, "unit": "%"}, {"measurement": "ILS at 66 µM", "setting": "C. elegans; Assay 4(ab), at 66 uM, 2.0 × 10^10 bacteria/ml, CF512 worms, no FuDR, read-out: Lifespan assay on plates", "result": 24.7, "unit": "%"}, {"measurement": "ILS at 66 µM", "setting": "C. elegans; Assay 5(ac), at 66 uM, 1.0 × 10^11 bacteria/ml, CF512 worms, no FuDR, read-out: Lifespan assay on plates", "result": 5.8, "unit": "%"}, {"measurement": "O = Life span- extending scores in worms", "setting": "C. elegans; score scale 0 to 2, 4 to 6 independent trials", "result": "1 (1 for lifespan extension observed in 2 trials)"}, {"measurement": "M = Lifespan-extending scores in worms", "setting": "C. elegans; summary score", "result": "1 (1 for lifespan extension observed in 2 trials)"}, {"measurement": "activity at 10 µM", "setting": "[1]; [5]", "result": 150, "unit": "%"}, {"measurement": "activity at 10 µM", "setting": "[1]; [6]", "result": 179, "unit": "%"}, {"measurement": "activity at 10 µM", "setting": "[1]; [7]", "result": 63.3, "unit": "%"}, {"measurement": "activity at 10 µM", "setting": "[1]; [8]", "result": 256, "unit": "%"}, {"measurement": "P = Potential DNA-damaging", "setting": "[1]; human, 24 h", "result": 0}, {"measurement": "R = Potential DNA damaging", "setting": "[1]; human, 24 h", "result": 0}, {"measurement": "L = PARP inhibition", "setting": "human PARP1", "result": 0}, {"measurement": "H2O2-resistant", "setting": "WI-38 cells [2]; [9]", "result": "YES"}, {"measurement": "Assay 1: H2O2-resistant", "setting": "WI-38 cells [2]", "result": "YES"}, {"measurement": "H2O2-resistant", "setting": "WI-38 cells [2]; [10]", "result": "YES"}, {"measurement": "EC50", "setting": "WI-38 cells [2]; [11]", "result": 4.8, "unit": "µM"}, {"measurement": "EC50", "setting": "WI-38 cells [2]; [12]", "result": 2.95, "unit": "µM"}, {"measurement": "M = Huntington's poly-Q toxicity attenuation", "setting": "[3]", "result": 0}, {"measurement": "K = Huntington's poly-Q toxicity attenuation", "setting": "[3]", "result": 0}, {"measurement": "fold induction at 10 µM", "setting": "WI-38 cells [4]; Exp. 1, WI-38 cells, read-out: Exp. 1, under MMS stress treatment, at 10 uM (fold change)", "result": 1.32}, {"measurement": "fold induction at 10 µM", "setting": "WI-38 cells [4]; Exp. 2, WI-38 cells, read-out: Exp. 2, under MMS stress treatment, at 10 uM (fold change)", "result": 1.89}, {"measurement": "B = MMS resistant", "setting": "WI-38 cells [4]; [13]", "result": 0}, {"measurement": "B = MMS resistant", "setting": "WI-38 cells [4]; summary score", "result": 0}, {"measurement": "D = Triple resistant", "setting": "WI-38 cells [4]; summary score", "result": 0}]}
